According to ChEMBL document CHEMBL1143150, “Design of azidoproline containing gluten peptides to suppress CD4+ T-cell responses associated with celiac disease” (Bioorg Med Chem, 2008):
Calls of active or inactive are those of the source. The rule behind the calls is not given here. Numbered stars: 1 amine (or outer) side, 2 acyl side, 3 side chain; on linkers, the order of the positions; unused ones are H or OH. Square brackets hold non-standard residues; d marks the D form. Side chains are listed from the residue outwards. Peptide text beside a SMILES is read from it. * marks the point of attachment. X3 = O=C([C@@H]1C[C@@H](n2cc(C(=O)[*:3])nn2)CN1[*:1])[*:2]; X1 = O=C([C@@H]1C[C@H](n2cc(C(=O)[*:3])nn2)CN1[*:1])[*:2]; X5 = CNC(=O)c1cn([C@@H]2C[C@@H](C(=O)[*:2])N([*:1])C2)nn1; X6 = CNC(=O)c1cn([C@H]2C[C@@H](C(=O)[*:2])N([*:1])C2)nn1; X4 = [N-]=[N+]=N[C@@H]1C[C@@H](C(=O)[*:2])N([*:1])C1; Pro(cis-4-N3) = [N-]=[N+]=N[C@@H]1CN[C@H](C(=O)O)C1; pGlu = O=C1CC[C@@H](C(=O)O)N1; X2 = NC(=O)CCCC(=O)*

How the values were obtained:
[1] = Binding affinity to HLA-DQ2 expressed in EBV-transformed B cells; type: cell-based
T-cell = assay: Blockade of HLA-DQ2 specific human CD4+ T cell proliferation in presence of alpha-9-gluten peptide after 48 hrs; type: functional, cell-based

| IC50 [1] [µM] | IC50 ([1]; read-out: IC50) [µM] | Compound | Activity (T-cell) |
| --- | --- | --- | --- |
| 8.6 | – | CC(C)C[C@H](NC(=O)[C@H](CCC(N)=O)NC(=O)[C@@H](N)CC(C)C)C(=O)N[C@@H](CCC(N)=O)C(=O)N1CCC[C@H]1C(=O)N[C@@H](Cc1ccccc1)C(=O)N1C[C@@H](N=[N+]=[N-])C[C@H]1C(=O)N[C@@H](CCC(N)=O)C(=O)N1CCC[C@H]1C(=O)N[C@@H](CCC(=O)O)C(=O)N[C@@H](CC(C)C)C(=O)N1CCC[C@H]1C(=O)N[C@@H](Cc1ccc(O)cc1)C(=O)N1CCC[C@H]1C(=O)N[C@@H](CCC(N)=O)C(=O)O | – |
| 9.4 | – | CC(C)C[C@H](NC(=O)CN)C(=O)N[C@@H](CCC(N)=O)C(=O)N1CCC[C@H]1C(=O)N[C@@H](Cc1ccccc1)C(=O)N1C[C@@H](N=[N+]=[N-])C[C@H]1C(=O)N[C@@H](CCC(N)=O)C(=O)N1CCC[C@H]1C(=O)N[C@@H](CCC(=O)O)C(=O)N[C@@H](CC(C)C)C(=O)N1CCC[C@H]1C(=O)N[C@@H](Cc1ccc(O)cc1)C(=O)N1CCC[C@H]1C(=O)N[C@@H](CCC(N)=O)C(=O)O (H-GLQPF[Pro(cis-4-N3)]QPELPYPQ-OH) | – |
| 6.9 | – | CC(C)C[C@H](NC(=O)[C@H](CCC(=O)O)NC(=O)[C@@H]1CCCN1C(=O)[C@H](CCC(N)=O)NC(=O)[C@@H]1C[C@H](N=[N+]=[N-])CN1C(=O)[C@H](Cc1ccccc1)NC(=O)[C@@H]1CCCN1C(=O)[C@H](CCC(N)=O)NC(=O)[C@@H](N)CC(C)C)C(=O)N1CCC[C@H]1C(=O)N[C@@H](Cc1ccc(O)cc1)C(=O)N1CCC[C@H]1C(=O)N[C@@H](CCC(N)=O)C(=O)O (H-LQPF[Pro(cis-4-N3)]QPELPYPQ-OH) | – |
| 17.2 | – | CC(C)C[C@H](NC(=O)[C@@H](N)CCC(N)=O)C(=O)N[C@@H](CCC(N)=O)C(=O)N1CCC[C@H]1C(=O)N[C@@H](Cc1ccccc1)C(=O)N1CCC[C@H]1C(=O)N[C@@H](CCC(N)=O)C(=O)N1CCC[C@H]1C(=O)N[C@@H](CCC(=O)O)C(=O)N[C@@H](CC(C)C)C(=O)N1CCC[C@H]1C(=O)N[C@@H](Cc1ccc(O)cc1)C(=O)O (H-QLQPFPQPELPY-OH) | – |
| 10.7 | – | CC(C)C[C@H](NC(=O)[C@@H](N)CCC(N)=O)C(=O)N[C@@H](CCC(N)=O)C(=O)N1CCC[C@H]1C(=O)N[C@@H](Cc1ccccc1)C(=O)N1C[C@@H](N=[N+]=[N-])C[C@H]1C(=O)N[C@@H](CCC(N)=O)C(=O)N1CCC[C@H]1C(=O)N[C@@H](CCC(=O)O)C(=O)N[C@@H](CC(C)C)C(=O)N1CCC[C@H]1C(=O)N[C@@H](Cc1ccc(O)cc1)C(=O)N1CCC[C@H]1C(=O)N[C@@H](CCC(N)=O)C(=O)O (H-QLQPF[Pro(cis-4-N3)]QPELPYPQ-OH) | – |
| 7.2 | – | CC(C)C[C@H](NC(=O)CCCC(N)=O)C(=O)N[C@@H](CCC(N)=O)C(=O)N1CCC[C@H]1C(=O)N[C@@H](Cc1ccccc1)C(=O)N1C[C@@H](N=[N+]=[N-])C[C@H]1C(=O)N[C@@H](CCC(N)=O)C(=O)N1CCC[C@H]1C(=O)N[C@@H](CCC(=O)O)C(=O)N[C@@H](CC(C)C)C(=O)N1CCC[C@H]1C(=O)N[C@@H](Cc1ccc(O)cc1)C(=O)N1CCC[C@H]1C(=O)N[C@@H](CCC(N)=O)C(=O)O (X2-LQPF[Pro(cis-4-N3)]QPELPYPQ-OH) | – |
| – | 2.4 | CC(C)C[C@H](NC(=O)[C@@H]1CCC(=O)N1)C(=O)N[C@@H](CCC(N)=O)C(=O)N1CCC[C@H]1C(=O)N[C@@H](Cc1ccccc1)C(=O)N1CCC[C@H]1C(=O)N[C@@H](CCC(N)=O)C(=O)N1C[C@@H](N=[N+]=[N-])C[C@H]1C(=O)N[C@@H](CCC(=O)O)C(=O)N[C@@H](CC(C)C)C(=O)N1CCC[C@H]1C(=O)N[C@@H](Cc1ccc(O)cc1)C(=O)N1CCC[C@H]1C(=O)N[C@@H](CCC(N)=O)C(=O)O ([pGlu]LQPFPQ[Pro(cis-4-N3)]ELPYPQ-OH) | – |
| – | 2.3 | COC(=O)[C@H](Cc1ccccc1)NC(=O)c1cn([C@H]2C[C@@H](C(=O)N[C@@H](CCC(=O)O)C(=O)N[C@@H](CC(C)C)C(=O)N3CCC[C@H]3C(=O)N[C@@H](Cc3ccc(O)cc3)C(=O)N3CCC[C@H]3C(=O)N[C@@H](CCC(N)=O)C(=O)O)N(C(=O)[C@H](CCC(N)=O)NC(=O)[C@@H]3CCCN3C(=O)[C@H](Cc3ccccc3)NC(=O)[C@@H]3CCCN3C(=O)[C@H](CCC(N)=O)NC(=O)[C@H](CC(C)C)NC(=O)[C@@H]3CCC(=O)N3)C2)nn1 ([pGlu]LQPFPQ[X1]([Phe-OMe])ELPYPQ-OH) | – |
| – | 3.2 | COC(=O)[C@H](Cc1ccccc1)NC(=O)c1cn([C@@H]2C[C@@H](C(=O)N[C@@H](CCC(=O)O)C(=O)N[C@@H](CC(C)C)C(=O)N3CCC[C@H]3C(=O)N[C@@H](Cc3ccc(O)cc3)C(=O)N3CCC[C@H]3C(=O)N[C@@H](CCC(N)=O)C(=O)O)N(C(=O)[C@H](CCC(N)=O)NC(=O)[C@@H]3CCCN3C(=O)[C@H](Cc3ccccc3)NC(=O)[C@@H]3CCCN3C(=O)[C@H](CCC(N)=O)NC(=O)[C@H](CC(C)C)NC(=O)[C@@H]3CCC(=O)N3)C2)nn1 ([pGlu]LQPFPQ[X3]([Phe-OMe])ELPYPQ-OH) | – |
| – | 2.3 | CC(C)C[C@H](NC(=O)[C@@H]1CCC(=O)N1)C(=O)N[C@@H](CCC(N)=O)C(=O)N1CCC[C@H]1C(=O)N[C@@H](Cc1ccccc1)C(=O)N1CCC[C@H]1C(=O)N[C@@H](CCC(N)=O)C(=O)N1C[C@H](N=[N+]=[N-])C[C@H]1C(=O)N[C@@H](CCC(=O)O)C(=O)N[C@@H](CC(C)C)C(=O)N1CCC[C@H]1C(=O)N[C@@H](Cc1ccc(O)cc1)C(=O)N1CCC[C@H]1C(=O)N[C@@H](CCC(N)=O)C(=O)O ([pGlu]LQPFPQ[X4]ELPYPQ-OH) | – |
| – | 5.8 | CNC(=O)c1cn([C@@H]2C[C@@H](C(=O)N[C@@H](CCC(=O)O)C(=O)N[C@@H](CC(C)C)C(=O)N3CCC[C@H]3C(=O)N[C@@H](Cc3ccc(O)cc3)C(=O)N3CCC[C@H]3C(=O)N[C@@H](CCC(N)=O)C(=O)O)N(C(=O)[C@H](CCC(N)=O)NC(=O)[C@@H]3CCCN3C(=O)[C@H](Cc3ccccc3)NC(=O)[C@@H]3CCCN3C(=O)[C@H](CCC(N)=O)NC(=O)[C@H](CC(C)C)NC(=O)[C@@H]3CCC(=O)N3)C2)nn1 ([pGlu]LQPFPQ[X5]ELPYPQ-OH) | – |
| – | 9 | CNC(=O)c1cn([C@H]2C[C@@H](C(=O)N[C@@H](CCC(=O)O)C(=O)N[C@@H](CC(C)C)C(=O)N3CCC[C@H]3C(=O)N[C@@H](Cc3ccc(O)cc3)C(=O)N3CCC[C@H]3C(=O)N[C@@H](CCC(N)=O)C(=O)O)N(C(=O)[C@H](CCC(N)=O)NC(=O)[C@@H]3CCCN3C(=O)[C@H](Cc3ccccc3)NC(=O)[C@@H]3CCCN3C(=O)[C@H](CCC(N)=O)NC(=O)[C@H](CC(C)C)NC(=O)[C@@H]3CCC(=O)N3)C2)nn1 ([pGlu]LQPFPQ[X6]ELPYPQ-OH) | – |
| – | 3.2 | CC(C)C[C@H](NC(=O)[C@@H]1CCC(=O)N1)C(=O)N[C@@H](CCC(N)=O)C(=O)N1CCC[C@H]1C(=O)N[C@@H](Cc1ccccc1)C(=O)N1C[C@@H](N=[N+]=[N-])C[C@H]1C(=O)N[C@@H](CCC(N)=O)C(=O)N1CCC[C@H]1C(=O)N[C@@H](CCC(=O)O)C(=O)N[C@@H](CC(C)C)C(=O)N1CCC[C@H]1C(=O)N[C@@H](Cc1ccc(O)cc1)C(=O)N1CCC[C@H]1C(=O)N[C@@H](CCC(N)=O)C(=O)O ([pGlu]LQPF[Pro(cis-4-N3)]QPELPYPQ-OH) | – |
| – | 1.3 | COC(=O)[C@H](Cc1ccccc1)NC(=O)c1cn([C@H]2C[C@@H](C(=O)N[C@@H](CCC(N)=O)C(=O)N3CCC[C@H]3C(=O)N[C@@H](CCC(=O)O)C(=O)N[C@@H](CC(C)C)C(=O)N3CCC[C@H]3C(=O)N[C@@H](Cc3ccc(O)cc3)C(=O)N3CCC[C@H]3C(=O)N[C@@H](CCC(N)=O)C(=O)O)N(C(=O)[C@H](Cc3ccccc3)NC(=O)[C@@H]3CCCN3C(=O)[C@H](CCC(N)=O)NC(=O)[C@H](CC(C)C)NC(=O)[C@@H]3CCC(=O)N3)C2)nn1 ([pGlu]LQPF[X1]([Phe-OMe])QPELPYPQ-OH) | Active |
| – | 29.2 | COC(=O)[C@H](Cc1ccccc1)NC(=O)c1cn([C@@H]2C[C@@H](C(=O)N[C@@H](CCC(N)=O)C(=O)N3CCC[C@H]3C(=O)N[C@@H](CCC(=O)O)C(=O)N[C@@H](CC(C)C)C(=O)N3CCC[C@H]3C(=O)N[C@@H](Cc3ccc(O)cc3)C(=O)N3CCC[C@H]3C(=O)N[C@@H](CCC(N)=O)C(=O)O)N(C(=O)[C@H](Cc3ccccc3)NC(=O)[C@@H]3CCCN3C(=O)[C@H](CCC(N)=O)NC(=O)[C@H](CC(C)C)NC(=O)[C@@H]3CCC(=O)N3)C2)nn1 ([pGlu]LQPF[X3]([Phe-OMe])QPELPYPQ-OH) | – |
| – | 5.5 | CC(C)C[C@H](NC(=O)[C@@H]1CCC(=O)N1)C(=O)N[C@@H](CCC(N)=O)C(=O)N1CCC[C@H]1C(=O)N[C@@H](Cc1ccccc1)C(=O)N1C[C@H](N=[N+]=[N-])C[C@H]1C(=O)N[C@@H](CCC(N)=O)C(=O)N1CCC[C@H]1C(=O)N[C@@H](CCC(=O)O)C(=O)N[C@@H](CC(C)C)C(=O)N1CCC[C@H]1C(=O)N[C@@H](Cc1ccc(O)cc1)C(=O)N1CCC[C@H]1C(=O)N[C@@H](CCC(N)=O)C(=O)O ([pGlu]LQPF[X4]QPELPYPQ-OH) | – |
| – | 5.8 | CNC(=O)c1cn([C@@H]2C[C@@H](C(=O)N[C@@H](CCC(N)=O)C(=O)N3CCC[C@H]3C(=O)N[C@@H](CCC(=O)O)C(=O)N[C@@H](CC(C)C)C(=O)N3CCC[C@H]3C(=O)N[C@@H](Cc3ccc(O)cc3)C(=O)N3CCC[C@H]3C(=O)N[C@@H](CCC(N)=O)C(=O)O)N(C(=O)[C@H](Cc3ccccc3)NC(=O)[C@@H]3CCCN3C(=O)[C@H](CCC(N)=O)NC(=O)[C@H](CC(C)C)NC(=O)[C@@H]3CCC(=O)N3)C2)nn1 ([pGlu]LQPF[X5]QPELPYPQ-OH) | – |
| – | 4.6 | CNC(=O)c1cn([C@H]2C[C@@H](C(=O)N[C@@H](CCC(N)=O)C(=O)N3CCC[C@H]3C(=O)N[C@@H](CCC(=O)O)C(=O)N[C@@H](CC(C)C)C(=O)N3CCC[C@H]3C(=O)N[C@@H](Cc3ccc(O)cc3)C(=O)N3CCC[C@H]3C(=O)N[C@@H](CCC(N)=O)C(=O)O)N(C(=O)[C@H](Cc3ccccc3)NC(=O)[C@@H]3CCCN3C(=O)[C@H](CCC(N)=O)NC(=O)[C@H](CC(C)C)NC(=O)[C@@H]3CCC(=O)N3)C2)nn1 ([pGlu]LQPF[X6]QPELPYPQ-OH) | – |
